Assay results reported in ChEMBL document CHEMBL4390709, “Design, synthesis and biological evaluation of benzimidazole derivatives as novel human Pin1 inhibitors” (Bioorg Med Chem Lett, 2019).

Tests used:
[1] = target: Peptidyl-prolyl cis-trans isomerase NIMA-interacting 1 (Homo sapiens, UniProt Q13526); experiment: Inhibition of recombinant human Pin1 (Met1 to Glu163 residues) expressed in Escherichia coli using Suc-Ala-Glu-cis-Pro-Phe-4-nitroanilide as substrate preincubated for 30 mins followed by substrate addition and measured for 90 secs by protease-coupled assay
PC-3 [2] = experiment: Cell cycle arrest in human PC3 cells assessed as accumulation at G2/M-phase at 10 uM measured after 24 hrs by propidium iodide staining based flow cytometry (reference value: 28.31%); assay type: functional
PC-3 [3] = experiment: Cell cycle arrest in human PC3 cells assessed as accumulation at G0/G1-phase at 10 uM measured after 24 hrs by propidium iodide staining based flow cytometry (reference value: 54.26%); assay type: functional
PC-3 [4] = experiment: Cell cycle arrest in human PC3 cells assessed as accumulation at subG1-phase at 10 uM measured after 24 hrs by propidium iodide staining based flow cytometry (reference value: 0.65%); assay type: functional
PC-3 [5] = experiment: Cell cycle arrest in human PC3 cells assessed as accumulation at subG1-phase at 5 uM measured after 24 hrs by propidium iodide staining based flow cytometry (reference value: 0.65%); assay type: functional
PC-3 [6] = experiment: Cell cycle arrest in human PC3 cells assessed as accumulation at G0/G1-phase at 5 uM measured after 24 hrs by propidium iodide staining based flow cytometry (reference value: 54.26%); assay type: functional
PC-3 [7] = experiment: Cell cycle arrest in human PC3 cells assessed as accumulation at G2/M-phase at 2.5 uM measured after 24 hrs by propidium iodide staining based flow cytometry (reference value: 28.31%); assay type: functional
PC-3 [8] = experiment: Cell cycle arrest in human PC3 cells assessed as accumulation at subG1-phase at 2.5 uM measured after 24 hrs by propidium iodide staining based flow cytometry (reference value: 0.65%); assay type: functional
PC-3 [9] = experiment: Cell cycle arrest in human PC3 cells assessed as increase in accumulation at G0/G1-phase measured after 24 hrs by propidium iodide staining based flow cytometry; assay type: functional
PC-3 [10] = experiment: Antiproliferative activity against human PC3 cells measured after 96 hrs by MTT assay; assay type: functional; conditions: PC-3, 96 h
PC-3 [11] = experiment: Cell cycle arrest in human PC3 cells assessed as accumulation at G2/M-phase at 5 uM measured after 24 hrs by propidium iodide staining based flow cytometry (reference value: 28.31%); assay type: functional
PC-3 [12] = experiment: Cell cycle arrest in human PC3 cells assessed as accumulation at G0/G1-phase at 2.5 uM measured after 24 hrs by propidium iodide staining based flow cytometry (reference value: 54.26%); assay type: functional

Sequence of Peptidyl-prolyl cis-trans isomerase NIMA-interacting 1 (Q13526 whole entry): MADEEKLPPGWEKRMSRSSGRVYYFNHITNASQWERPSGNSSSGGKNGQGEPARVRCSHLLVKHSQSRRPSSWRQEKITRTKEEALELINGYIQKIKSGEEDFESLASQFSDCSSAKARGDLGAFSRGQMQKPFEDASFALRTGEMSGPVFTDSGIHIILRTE

Row | SMILES | IC50 [1] | other results
1 | O=C(CCn1c(-c2ccc(C(=O)O)cc2)nc2ccccc21)Nc1cccc(C(F)(F)F)c1 | 11.3 µM | 
2 | O=C(O)CCc1nc2ccccc2n1CCC(=O)Nc1ccccc1 | 19.7 µM | 
3 | Cc1ccccc1NC(=O)CCn1c(-c2ccc(C(=O)O)cc2)nc2ccccc21 | 7.27 µM | 
4 | Cc1ccccc1NC(=O)CCn1c(CCC(=O)O)nc2ccccc21 | 9.81 µM | 
5 | CC(C)(C)c1ccc(OC(=O)CCn2c(-c3ccc(C(=O)O)cc3)nc3ccccc32)cc1 | 13.9 µM | 
6 | O=C(CCn1c(-c2ccc(C(=O)O)cc2)nc2ccccc21)Nc1cccc([N+](=O)[O-])c1 | 13.6 µM | 
7 | Cc1cccc(NC(=O)CCn2c(CCC(=O)O)nc3ccccc32)c1 | 7.56 µM | 
8 | CS(=O)(=O)NC(=O)c1ccc(-c2nc3ccccc3n2CCCOc2cccc3ccccc23)cc1 | 7.83 µM | 
9 | COc1cccc(NC(=O)CCn2c(-c3ccc(C(=O)O)cc3)nc3ccccc32)c1 | 18.7 µM | 

Stronger by IC50 [1], values ahead:

Row | IC50 [1] | SMILES | other results
10 | 5.4 µM | O=C(O)c1ccc(-c2nc3ccccc3n2CCC(=O)N(Cc2ccccc2)Cc2ccccc2)cc1 | 
11 | 3.57 µM | COc1cc(NC(=O)CCn2c(-c3ccc(C(=O)O)cc3)nc3ccccc32)cc(OC)c1 | 
12 | 2.89 µM | O=C(CCn1c(-c2ccc(C(=O)O)cc2)nc2ccccc21)Nc1cc(Cl)cc(Cl)c1 | 
13 | 2.26 µM | O=C(NS(=O)(=O)C(F)(F)F)c1ccc(-c2nc3ccccc3n2CCCOc2cccc3ccccc23)cc1 | 
14 | 2.2 µM | O=C(O)c1ccc(-c2nc3ccccc3n2CCCOc2ccc(Oc3ccccc3)cc2)cc1 | 
15 | 1.89 µM | CC(C)(C)c1ccc(OCCCn2c(-c3ccc(C(=O)O)cc3)nc3ccccc32)cc1 | 
16 | 1.87 µM | O=C(CCn1c(-c2ccc(C(=O)O)cc2)nc2ccccc21)Oc1cccc2ccccc12 | 
17 | 1.53 µM | O=C(O)c1ccc(-c2nc3ccccc3n2CCC(=O)N(c2ccccc2)c2ccc3ccccc3c2)cc1 | 
18 | 1.1 µM | Cc1cccc(NC(=O)CCn2c(-c3ccc(C(=O)O)cc3)nc3ccccc32)c1 | 
19 | 1.02 µM | O=C(CCn1c(-c2ccc(C(=O)O)cc2)nc2ccccc21)Oc1ccc(Oc2ccccc2)cc1 | 
20 | 1 µM | O=C(NS(=O)(=O)c1ccccc1)c1ccc(-c2nc3ccccc3n2CCCOc2cccc3ccccc23)cc1 | Activity (PC-3 [2]): 27.2%; Activity (PC-3 [3]): 64.24%; Activity (PC-3 [4]): 0.37%; Activity (PC-3 [5]): 0.49%; Activity (PC-3 [6]): 62.46%; Activity (PC-3 [7]): 29.01%; Activity (PC-3 [8]): 0.52%; Activity (PC-3 [9]): Dose-dependent effect; GI50 (PC-3 [10]): 9 µM; Activity (PC-3 [11]): 27.86%; Activity (PC-3 [12]): 58.33%
21 | 0.72 µM | Cc1cc(OC(=O)CCn2c(-c3ccc(C(=O)O)cc3)nc3ccccc32)cc(C)c1Cl | 
22 | 0.47 µM | Cc1cc(OCCCn2c(-c3ccc(C(=O)O)cc3)nc3ccccc32)cc(C)c1Cl | 
23 | 0.33 µM | O=C(O)c1ccc(-c2nc3ccccc3n2CCCOc2cccc3ccccc23)cc1 | 
